Measurements taken from patent EP4620956A1, “PARP1 INHIBITORS” (Zhejiang Yangli Pharmaceutical Technology Co., Ltd., priority 2022, dated 2024).

Columns and labels:
[1] = test system: MDA-MB-436 xenograft tumour; assay: Anti-tumour effect in MDA-MB-436 subcutaneous xenograft tumour mouse model; assay type: in vivo; details: same dose, MDA-MB-436 xenograft mice
Experimental: Example 4 was further verified in vivo. A subcutaneous xenograft tumour mouse model of the BRCA1-mutated MDA-MB-436 cell line was selected. Human breast cancer MDA-MB-436 cells (ATCC, HTB-130) were cultured in vitro in a monolayer, with the culture conditions of L-15 medium supplemented with 10% foetal bovine serum, 1% penicillin-streptomycin solution, and 0.01 mg/mL bovine insulin, and cultured at 37°C in a CO2-free incubator. The cells were routinely digested and passaged twice a week using trypsin-EDTA. When the cell confluency reached 80%-90%, the cells were harvested and counted, and 0.2 mL of 1 × 10^7 MDA-MB-436 cells were subcutaneously inoculated on the right back of each mouse (PBS : Matrigel = 1 : 1). When the mean tumour volume reached 152 mm^3, the mice were grouped for drug administration. The day of drug administration was set as Day 0. The tumour volume and the body weight of the mice were monitored twice a week, and the drug treatment lasted for 28 days.
The diameter of the tumour was measured with a vernier calliper. The tumour volume is calculated according to the following equation: V = 0.5a × b^2, where a and b represent the long and short diameters of the tumour, respectively. The tumour inhibition effect of the compound was evaluated by relative tumour shrinkage rate Reg%. Reg% reflects the rate of tumour volume reduction after treatment. Reg% = (V0-Vt)/V0×100%, where V0 is the tumour volume measured at the time of grouping for drug administration (i.e., d0), and Vt is the tumour volume measured at a certain time point.
The criteria for compound response in the mouse model were adapted from mRECIST (Modified Response Evaluation Criteria in Solid Tumours) (Gao et al, 2015), and are specifically defined as follows: [formula] • PR (Partial Response): BestResponse < −50% and BestAvgResponse < −20%; [formula] • SD (Stable Disease): BestResponse < 35% and BestAvgResponse < 30%; [formula] • PD (Progressive Disease): other cases; • ORR% is the sum of the proportions of Complete Response (CR) and Partial Response (PR).
Statistical analysis was performed using Prism software, including the mean value (Mean) and standard error of the mean (SEM) of the tumour volume at each time point for each group. For the statistical analysis of TV, the original TV data from each measurement were used to compare the differences between groups. Two-way ANOVA was applied to include the two factors, i.e., drug administration and time for analysis, followed by the Tukey's multiple comparisons test, wherein p < 0.05 was considered statistically significant.

PARP2 = molecular target: T1, PARP2 (Homo sapiens, UniProt Q9UGN5); assay: PARP2-DNA trapping, fluorescence polarization (FP); assay type: biochemical
T1 construct: purchased BPS 80502

MDA-MB-231 = assay: Anti-proliferative activity (CellTiter-Glo, 7 days), MDA-MB-231; assay type: cell-based, human
A549 PARP1-KO cell lines = assay: Cellular PARylation inhibition, high-content imaging, PARP1-KO; assay type: cell-based
A549 PARP2-KO cell line = assay: Cellular PARylation inhibition, high-content imaging, PARP2-KO; assay type: cell-based; details: PARylation at the cellular level
PARP1 = molecular target: T2, PARP1 (Homo sapiens, UniProt P09874); assay: PARP1-DNA trapping, fluorescence polarization (FP); assay type: biochemical
T2 construct: purchased BPS 80501
T2 sequence (P09874 whole entry): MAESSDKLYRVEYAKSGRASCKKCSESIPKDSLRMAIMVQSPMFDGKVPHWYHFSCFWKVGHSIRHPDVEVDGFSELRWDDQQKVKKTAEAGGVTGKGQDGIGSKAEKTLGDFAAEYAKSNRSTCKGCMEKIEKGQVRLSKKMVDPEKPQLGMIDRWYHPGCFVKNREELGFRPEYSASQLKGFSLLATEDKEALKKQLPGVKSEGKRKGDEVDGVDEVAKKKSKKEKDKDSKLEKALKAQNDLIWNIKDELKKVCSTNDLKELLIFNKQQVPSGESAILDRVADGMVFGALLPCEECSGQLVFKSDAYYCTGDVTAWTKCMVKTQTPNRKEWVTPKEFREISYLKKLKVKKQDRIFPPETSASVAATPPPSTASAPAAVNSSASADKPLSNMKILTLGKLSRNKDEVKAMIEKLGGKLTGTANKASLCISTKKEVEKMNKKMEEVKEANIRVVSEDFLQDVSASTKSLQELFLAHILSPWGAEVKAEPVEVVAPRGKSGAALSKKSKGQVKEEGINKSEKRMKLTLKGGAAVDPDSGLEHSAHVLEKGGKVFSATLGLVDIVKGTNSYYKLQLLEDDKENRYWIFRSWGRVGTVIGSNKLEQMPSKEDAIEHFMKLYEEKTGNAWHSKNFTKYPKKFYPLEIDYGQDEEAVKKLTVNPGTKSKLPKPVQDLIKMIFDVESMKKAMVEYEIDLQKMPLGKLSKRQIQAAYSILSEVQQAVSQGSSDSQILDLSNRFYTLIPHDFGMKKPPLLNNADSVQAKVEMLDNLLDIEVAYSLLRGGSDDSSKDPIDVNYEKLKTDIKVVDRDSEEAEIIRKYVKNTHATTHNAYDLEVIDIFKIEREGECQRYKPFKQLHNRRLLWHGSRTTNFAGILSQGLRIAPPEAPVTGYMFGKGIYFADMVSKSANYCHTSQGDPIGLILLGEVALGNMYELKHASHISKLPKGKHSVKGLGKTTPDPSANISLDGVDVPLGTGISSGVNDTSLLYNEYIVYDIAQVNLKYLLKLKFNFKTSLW

T1 sequence (Q9UGN5 whole entry): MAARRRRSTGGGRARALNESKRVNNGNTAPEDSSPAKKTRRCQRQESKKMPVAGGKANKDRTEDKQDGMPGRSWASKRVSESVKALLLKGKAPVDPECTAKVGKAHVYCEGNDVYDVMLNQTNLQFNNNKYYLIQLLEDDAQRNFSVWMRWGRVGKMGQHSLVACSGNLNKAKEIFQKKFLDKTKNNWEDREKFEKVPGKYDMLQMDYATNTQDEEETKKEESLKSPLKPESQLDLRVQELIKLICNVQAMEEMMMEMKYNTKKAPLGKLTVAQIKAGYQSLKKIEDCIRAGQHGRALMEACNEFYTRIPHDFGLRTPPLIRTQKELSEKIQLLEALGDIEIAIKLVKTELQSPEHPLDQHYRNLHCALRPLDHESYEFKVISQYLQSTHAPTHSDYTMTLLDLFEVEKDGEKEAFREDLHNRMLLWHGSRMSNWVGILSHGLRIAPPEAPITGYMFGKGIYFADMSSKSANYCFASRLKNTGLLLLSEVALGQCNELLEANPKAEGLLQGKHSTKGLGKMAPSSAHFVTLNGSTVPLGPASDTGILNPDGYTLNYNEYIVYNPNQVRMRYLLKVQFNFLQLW

[2H]C([2H])([2H])NC(=O)c1ccc(N2CCN(Cc3cnc4c(N)c(CC)c(=O)[nH]c4c3)CC2)c(F)n1 [Example 4, 5-(4-((8-Amino-7-ethyl-6-oxo-5,6-dihydro-1,5-naphthyridin-3-yl)methyl)piperazin-1-yl)-6-fluoro-N-(methyl-d3)picolinamide]
tumour regression ([1]; FIG. 3): promoted tumour regression
ORR ([1]; treatment 28 days): 60%
Bottom (PARP2; PARP2, 0.25 hour): 4.3
EC50 (PARP2; PARP2, 0.25 hour): 2330 nM
Hillslope (PARP2; PARP2, 0.25 hour): 1.4
Top (PARP2; PARP2, 0.25 hour): = 100.0
Bottom (PARP2; PARP2, 0.5 hour): 1.0
EC50 (PARP2; PARP2, 0.5 hour): 5470 nM
Hillslope (PARP2; PARP2, 0.5 hour): 1.9
Top (PARP2; PARP2, 0.5 hour): = 100.0
Bottom (PARP2; PARP2, 1 hour): 0.8
EC50 (PARP2; PARP2, 1 hour): > 10000 nM
Hillslope (PARP2; PARP2, 1 hour): 2.1
Top (PARP2; PARP2, 1 hour): = 100.0
EC50 (PARP2; PARP2, 2 hour): > 10000 nM
EC50 (PARP2; PARP2, 4 hour): > 10000 nM
EC50 (PARP2; PARP2, 8 hour): > 10000 nM
EC50 (PARP2; PARP2, 24 hour): > 10000 nM
EC50 (PARP2; PARP2, 48 hour): > 10000 nM
inhibition on cell proliferation at the highest concentration (MDA-MB-231; BRCA1-normal MDA-MB-231 cell line, 10 µM): no detectable inhibition
IC50 (MDA-MB-231; Homo sapiens, MDA-MB-231, 168 h, BRCA1-normal, 7 days, read-out: MDA-MB-231 IC50): > 10000 nM
inhibition on the enzyme activity at the highest concentration (A549 PARP1-KO cell lines; A549 PARP1-KO cell lines, 40 µM): no detectable inhibition
IC50 (A549 PARP1-KO cell lines; Homo sapiens, A549, PARylation at the cellular level): > 40000 nM
IC50 (A549 PARP2-KO cell line; Homo sapiens, A549, read-out: PARP2-KO IC50): 7.7 nM
PARP1 KO/PARP2 KO selectivity fold (A549 PARP2-KO cell line): >5222 fold
capability to induce PARP1-DNA trapping higher than that of Olaparib (PARP1; 2-hour time point, relative to Olaparib): 48 fold
PARP1-DNA trapping activity stronger than that of AZD5305 (PARP1; 54-hour time point, relative to AZD5305): 14 fold
time over which PARP1-DNA trapping activity could be maintained (PARP1; FP, PARP1): more than 54 hours
Bottom (PARP1; PARP1, 0.25 hour): -8.7
EC50 (PARP1; PARP1, 0.25 hour): 3.11 nM
Hillslope (PARP1; PARP1, 0.25 hour): 2.8
Top (PARP1; PARP1, 0.25 hour): 108.7
Bottom (PARP1; PARP1, 0.5 hour): -6.3
EC50 (PARP1; PARP1, 0.5 hour): 2.26 nM
Hillslope (PARP1; PARP1, 0.5 hour): 2.9
Top (PARP1; PARP1, 0.5 hour): 105.6
Bottom (PARP1; PARP1, 1 hour): -4.2
EC50 (PARP1; PARP1, 1 hour): 2.58 nM
Hillslope (PARP1; PARP1, 1 hour): 3.1
Top (PARP1; PARP1, 1 hour): 109.1
Bottom (PARP1; PARP1, 2 hour): -0.8
EC50 (PARP1; PARP1, 2 hour): 2.86 nM
Hillslope (PARP1; PARP1, 2 hour): 3.0
Top (PARP1; PARP1, 2 hour): 105.3
Bottom (PARP1; PARP1, 4 hour): -5.6
EC50 (PARP1; PARP1, 4 hour): 2.99 nM
Hillslope (PARP1; PARP1, 4 hour): 2.4
Top (PARP1; PARP1, 4 hour): 106.8
Bottom (PARP1; PARP1, 8 hour): -6.8
EC50 (PARP1; PARP1, 8 hour): 3.51 nM
Hillslope (PARP1; PARP1, 8 hour): 2.6
Top (PARP1; PARP1, 8 hour): 107.2
Bottom (PARP1; PARP1, 24 hour): -4.4
EC50 (PARP1; PARP1, 24 hour): 3.97 nM
Hillslope (PARP1; PARP1, 24 hour): 1.5
Top (PARP1; PARP1, 24 hour): 79.2
Bottom (PARP1; PARP1, 30 hour): -8.8
EC50 (PARP1; PARP1, 30 hour): 5.46 nM
Hillslope (PARP1; PARP1, 30 hour): 1.2
Top (PARP1; PARP1, 30 hour): 79.1
Bottom (PARP1; PARP1, 48 hour): -5.6
EC50 (PARP1; PARP1, 48 hour): 4.58 nM
Hillslope (PARP1; PARP1, 48 hour): 2.0
Top (PARP1; PARP1, 48 hour): 51.0
Bottom (PARP1; PARP1, 54 hour): -12.8
EC50 (PARP1; PARP1, 54 hour): 9.54 nM
Hillslope (PARP1; PARP1, 54 hour): 0.8
Top (PARP1; PARP1, 54 hour): 55.9
